Measurements: patent publication US7902354B2, “Lapachone compounds and methods of use thereof” (ArQule, Inc., priority 2006, dated 2011)

What was measured:
Type in all cases: cell-based
[1] = tested on: A549 human lung carcinoma cells; experiment: MTS cell viability assay, A549 human lung carcinoma cells; settings: A549, 4 h compound incubation, MTS, read-out: IC50 Values, Cancerous Cells, Lung A549
[2] = tested on: DLD-1 human colon carcinoma cells; experiment: MTS cell viability assay, DLD-1 human colon carcinoma cells; settings: DLD-1, 4 h compound incubation, MTS, read-out: IC50 Values, Cancerous Cells, Colon DLD-1
[3] = tested on: DU-145 human prostate carcinoma cells; experiment: MTS cell viability assay, DU-145 human prostate carcinoma cells; settings: DU-145, 4 h compound incubation, MTS, read-out: IC50 Values, Cancerous Cells, Prostate DU-145
[4] = tested on: K-562 human leukemia cells; experiment: MTS cell viability assay, K-562 human leukemia cells; settings: K562, K-562, 4 h compound incubation, MTS, read-out: IC50 Values, Cancerous Cells, Leukemia K-562
[5] = tested on: PACA-2 human pancreatic carcinoma cells; experiment: MTS cell viability assay, PACA-2 human pancreatic carcinoma cells; settings: PACA-2, 4 h compound incubation, MTS, read-out: IC50 Values, Cancerous Cells, Pancreas PACA-2
[6] = tested on: NCM-460 normal colon epithelial cells; experiment: MTS cell viability assay, NCM-460 normal colon epithelial cells; settings: for IC50: Homo sapiens, NCM460, NCM-460, 4 h compound incubation, MTS, read-out: IC50 Values, Normal Cells, Colon NCM-460; for Fold Selectivity (NCM-460/DLD1): ratio of IC50 NCM-460 / DLD1

Row | SMILES | IC50 [1] | IC50 [2] | IC50 [3] | IC50 [4] | IC50 [5] | IC50 [6] | Fold Selectivity (NCM-460/DLD1) [6]
1 | O=C1C(=O)c2ccccc2C2=C1SCC1(CCN(C(=O)Nc3ccccc3)CC1)O2 [Compound 84, 5,6-dioxo-N-phenyl-5,6-dihydro-1′H-spiro[naphtho[1,2-b][1,4]oxathiine-2,4′-piperidine]-1′-carboxamide] | 16.9 µM | 4.69 µM | 10.3 µM | 6.83 µM | 6.38 µM | 19.1 µM | 4.1
2 | O=C1C(=O)c2ccccc2C2=C1SCC1(CCN(C(=O)Nc3ccc(F)cc3)CC1)O2 [Compound 85, N-(4-fluorophenyl)-5,6-dioxo-5,6-dihydro-1′H-spiro[naphtho[1,2-b][1,4]oxathiine-2,4′-piperidine]-1′-carboxamide] | 6.38 µM | 1.29 µM | 1.88 µM | 1.32 µM | 1.14 µM | 3.31 µM | 2.6
3 | O=C1C(=O)c2ccccc2C2=C1SCC1(CCN(C(=O)Nc3cccc(C(F)(F)F)c3)CC1)O2 [Compound 86, 5,6-dioxo-N-[3-(trifluoromethyl)phenyl]-5,6-dihydro-1′H-spiro[naphtho[1,2-b][1,4]oxathiine-2,4′-piperidine]-1′-carboxamide] | 3.84 µM | 1.48 µM | 1.03 µM | 2.17 µM | 1.33 µM | 10.1 µM | 6.8
4 | O=C1C(=O)c2ccccc2C2=C1SCC1(CCN(C(=O)Nc3ccc(Cl)c(Cl)c3)CC1)O2 [Compound 87, N-(3,4-dichlorophenyl)-5,6-dioxo-5,6-dihydro-1′H-spiro[naphtho[1,2-b][1,4]oxathiine-2,4′-piperidine]-1′-carboxamide] | 3.31 µM | 3.04 µM | 0.888 µM | 3.11 µM | 1.34 µM | 30.5 µM | 10.0
5 | CN(C)c1ccc(NC(=O)N2CCC3(CC2)CSC2=C(O3)c3ccccc3C(=O)C2=O)cc1 [Compound 88, N-[4-(dimethylamino)phenyl]-5,6-dioxo-5,6-dihydro-1′H-spiro[naphtho[1,2-b][1,4]oxathiine-2,4′-piperidine]-1′-carboxamide] | 13.3 µM | 1.49 µM | 4.33 µM | 2.14 µM | 1.85 µM | 6.08 µM | 4.1
6 | Cc1ccc(NC(=O)N2CCC3(CC2)CSC2=C(O3)c3ccccc3C(=O)C2=O)cn1 [Compound 91, N-(6-methylpyridin-3-yl)-5,6-dioxo-5,6-dihydro-1′H-spiro[naphtho[1,2-b][1,4]oxathiine-2,4′-piperidine]-1′-carboxamide] | 10.2 µM | 1.6 µM | 2.87 µM | 1.45 µM | 1.35 µM | 9 µM | 5.6
7 | O=C1C(=O)c2ccccc2C2=C1SCC1(CCN(C(=O)Oc3ccccc3)CC1)O2 [Compound 92, phenyl 5,6-dioxo-5,6-dihydro-1′H-spiro[naphtho[1,2-b][1,4]oxathiine-2,4′-piperidine]-1′-carboxylate] | 31 µM | 4.01 µM | 9.11 µM | 4.54 µM | 4.29 µM | 13.1 µM | 3.3
8 | CC(C)COC(=O)N1CCC2(CC1)CSC1=C(O2)c2ccccc2C(=O)C1=O [Compound 93, isobutyl 5,6-dioxo-5,6-dihydro-1′H-spiro[naphtho[1,2-b][1,4]oxathiine-2,4′-piperidine]-1′-carboxylate] | 4.87 µM | 1.68 µM | 4.25 µM | 2.46 µM | 3.55 µM | 10.8 µM | 6.4
9 | C=COC(=O)N1CCC2(CC1)CSC1=C(O2)c2ccccc2C(=O)C1=O [Compound 94, vinyl 5,6-dioxo-5,6-dihydro-1′H-spiro[naphtho[1,2-b][1,4]oxathiine-2,4′-piperidine]-1′-carboxylate] | 8.52 µM | 2.41 µM | 3.69 µM | 2.49 µM | 2.81 µM | 9.48 µM | 3.9
